Laboratory results from patent US4452851A, “Cephem compounds” (Fujisawa Pharmaceutical Co., Ltd., priority 1981, dated 1984).
In brackets after ≈: the same amount, converted by molar mass.

Legend:
[1] = test system: Proteus vulgaris IAM-1025; assay: Minimal inhibitory concentration, two-fold agar-plate dilution method; assay type: cell-based; details: IAM1025, HI-agar, 37° C., 20 hours
Procedure: (§1) In vitro antibacterial activity was determined by the two-fold agar-plate dilution method as described below. One loopful of an overnight culture of each test strain in Trypticase-soy broth (10^8 viable cells per ml) was streaked on heart infusion agar (HI-agar) containing graded concentrations of representative test compound, and the minimal inhibitory concentration (MIC) was expressed in terms of μg/ml after incubation at 37° C. for 20 hours.

[2] = test system: Proteus mirabilis 18; assay: as above; assay type: cell-based; details: HI-agar, 37° C., 20 hours
Procedure: as §1

[3] = test system: Escherichia coli NIHJ JC-2; assay: as above; assay type: cell-based; details: NIHJJC2, HI-agar, 37° C., 20 hours
Procedure: as §1

[4] = test system: Escherichia coli 31; assay: as above; assay type: cell-based; details: HI-agar, 37° C., 20 hours
Procedure: as §1

[5] = test system: Klebsiella pneumoniae 20; assay: as above; assay type: cell-based; details: HI-agar, 37° C., 20 hours
Procedure: as §1

[6] = in vivo; details: rat, po, 100 mg/kg
Procedure: Rats anesthetized with pentobarbital were fixed in supine position, and a polyethylene cannula was inserted into the bile duct. Bile samples were collected at 0 to 3, 3 to 6, and 6 to 24 hours after oral administration of 100 mg of the test drugs per kg. The antibiotic levels in the bile samples were assyed with the standard solutions prepared with M/15 phosphate buffer (pH 7.0) and the biliary excretion in 24 hours were calculated.

[7] = Urinary excretion in rats after oral administration; assay type: in vivo; details: rat, 100 mg/kg, 100 mg per Kg, urine 0 to 24 hours, bioassay
Procedure: The concentration of antibiotic in urine samples were bioassayed with the standard buffer at pH 7.0, and the urinary excretion in 24 hours were calculated.

Structure (SMILES) | MIC [1] | MIC [2] | MIC [3] | MIC [4] | MIC [5] | dose excreted at 24 h [6] | dose excreted at 24 h [7]
CCSC1=C(C(=O)O)N2C(=O)C(NC(=O)/C(=N\OCC(=O)O)c3nsc(N)n3)C2SC1 (stereo not drawn) [(4), 7-[2-(5-amino-1,2,4-thiadiazol-3-yl)-2-carboxymethoxyiminoacetamido]-3-ethylthio-3-cephem-4-carboxylic acid (syn isomer)] | 0.78 µg/mL (≈ 1.6 µM) | 0.2 µg/mL (≈ 0.409 µM) | 1.56 µg/mL (≈ 3.19 µM) | 0.2 µg/mL (≈ 0.409 µM) | 0.39 µg/mL (≈ 0.798 µM) |  | 
CCSC1=C(C(=O)O)N2C(=O)C(NC(=O)/C(=N\OCC(=O)O)c3csc(N)n3)C2SC1 (stereo not drawn) [Compound (2), 7-[2-(2-aminothiazol-4-yl)-2-carboxymethoxyiminoacetamido]-3-ethylthio-3-cephem-4-carboxylic acid (syn isomer)] | 0.78 µg/mL (≈ 1.6 µM) | 0.025 µg/mL (≈ 0.0513 µM) | 3.13 µg/mL (≈ 6.42 µM) | 0.2 µg/mL (≈ 0.41 µM) | 0.1 µg/mL (≈ 0.205 µM) | 32.2% | 19.4%
CCSC1=C(C(=O)O)N2C(=O)C(NC(=O)/C(=N\OCC(=O)O)c3nc(N)sc3Cl)C2SC1 (stereo not drawn) [Compound (3), 7-[2-(2-amino-5-chlorothiazol-4-yl)-2-carboxymethoxyiminoacetamido]-3-ethylthio-3-cephem-4-carboxylic acid (syn isomer)] | 0.1 µg/mL (≈ 0.192 µM) | 0.05 µg/mL (≈ 0.0958 µM) | 1.56 µg/mL (≈ 2.99 µM) | 0.2 µg/mL (≈ 0.383 µM) | 0.2 µg/mL (≈ 0.383 µM) |  | 

Other lines, results leading:

MIC [1] | MIC [2] | MIC [3] | MIC [4] | MIC [5] | dose excreted at 24 h [6] | dose excreted at 24 h [7] | Structure (SMILES)
0.39 µg/mL (≈ 0.824 µM) | 0.05 µg/mL (≈ 0.106 µM) | 1.56 µg/mL (≈ 3.29 µM) | 0.2 µg/mL (≈ 0.422 µM) | 0.1 µg/mL (≈ 0.211 µM) | 41.1% | 51.6% | CSC1=C(C(=O)O)N2C(=O)C(NC(=O)/C(=N\OCC(=O)O)c3csc(N)n3)C2SC1 (stereo not drawn) [Compound (1), 7-[2-(2-aminothiazol-4-yl)-2-carboxymethoxyiminoacetamido]-3-methylthio-3-cephem-4-carboxylic acid (syn isomer)]
 |  |  |  |  | 25.5% | 48.6% | CSC1=C(C(=O)O)N2C(=O)C(NC(=O)/C(=N\OCC(=O)O)c3cscn3)C2SC1 (stereo not drawn) [Test Compound (3), 7-[2-(4-thiazolyl)-2-carboxymethoxyiminoacetamido]-3-methylthio-3-cephem-4-carboxylic acid (syn isomer)]
